From publication PMC5585036 (Molecular pharmaceutics, 2017)
One block for each molecule: values may come before it.

Columns and labels:
[1] = target: T1, Monocarboxylate transporter 6 (MCT6) (Homo sapiens, UniProt O15375); test: inhibition of [3H]bumetanide uptake in MCT6-expressing oocytes; format: cell-based
T1 sequence (O15375 1-505): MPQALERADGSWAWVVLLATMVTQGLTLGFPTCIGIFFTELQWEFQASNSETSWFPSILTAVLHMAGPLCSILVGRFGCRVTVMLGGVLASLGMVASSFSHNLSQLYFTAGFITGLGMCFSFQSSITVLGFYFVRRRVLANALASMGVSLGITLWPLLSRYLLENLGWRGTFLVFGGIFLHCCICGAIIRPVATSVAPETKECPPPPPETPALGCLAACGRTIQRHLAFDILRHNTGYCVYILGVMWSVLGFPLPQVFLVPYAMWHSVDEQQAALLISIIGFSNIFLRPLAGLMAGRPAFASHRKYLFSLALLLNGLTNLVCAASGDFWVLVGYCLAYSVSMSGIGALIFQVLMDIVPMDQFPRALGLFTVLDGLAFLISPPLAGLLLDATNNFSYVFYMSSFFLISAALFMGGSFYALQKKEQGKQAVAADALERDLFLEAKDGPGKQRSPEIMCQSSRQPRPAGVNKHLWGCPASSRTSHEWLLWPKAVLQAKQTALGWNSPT

[2] = target: T1, Monocarboxylate transporter 6 (MCT6); format: cell-based
[3] = substrate: CCCCNc1cc(C(=O)O)cc(S(N)(=O)=O)c1Oc1ccccc1; test: radiolabeled uptake in MCT6-expressing versus water-injected oocytes; format: cell-based, Homo sapiens

Ki [1]: 22.8 ± 6.95 µM
Molecule: O=C(CCc1ccc(O)cc1)c1c(O)cc(O)cc1O [phloretin]

Molecule: O=c1c(O)c(-c2ccc(O)c(O)c2)oc2cc(O)cc(O)c12 [quercetin]
IC50 [2]: 25.3 ± 3.36 µM

Molecule: O=c1c(O)c(-c2ccc(O)cc2O)oc2cc(O)cc(O)c12 [morin]
IC50 [2]: 33.1 ± 3.29 µM

B1: Monocarboxylate transporter 6 (MCT6) (Homo sapiens) (protein)
chain: T1 sequence (O15375 1-505)
Km [3]: 60.5 ± 14.1 µM
